Laboratory results taken from PubChem BioAssay (NCI).
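Cells were grown in 96-well plates and exposed to each compound for 48 hours at five concentrations; endpoints were interpolated linearly between bracketing concentrations, or set to the highest concentration if not reached. GI50: concentration for 50% inhibition of growth. TGI: total growth inhibition.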

Experiments:
Experiment in all cases: NCI-60 cell line screen, 48 h
[1] = tested on: A549 NSCLC
[2] = tested on: MOLT-4 leukemia
[3] = tested on: OVCAR-3 ovarian
[4] = tested on: OVCAR-5 ovarian
[5] = tested on: SF-268 CNS
[6] = tested on: SF-539 CNS
[7] = tested on: SNB-19 CNS
[8] = tested on: UO-31 renal
[9] = tested on: MALME-3M melanoma
[10] = tested on: NCI-H522 lung

Row | SMILES | TGI [1] [µM] | TGI [2] [µM] | TGI [3] [µM] | TGI [4] [µM] | TGI [5] [µM] | TGI [6] [µM] | TGI [7] [µM] | TGI [8] [µM] | TGI [9] [µM] | TGI [10] [µM] | GI50 [1] [µM] | GI50 [9] [µM] | GI50 [2] [µM] | GI50 [10] [µM] | GI50 [3] [µM] | GI50 [4] [µM] | GI50 [5] [µM] | GI50 [6] [µM] | GI50 [7] [µM] | GI50 [8] [µM]
1 | N#CC1=C(N)Nc2nc3ccccc3n2C1c1ccccc1 (stereo unspecified) | > 100 | > 100 | 97.7 | > 100 | > 100 | > 100 | > 100 | > 100 |  |  |  |  |  |  |  |  |  |  |  | 
2 | S=C1NN=C2C(=C3CCCC4C5CCCCC5N2C34)N1 (stereo unspecified) | > 100 | > 100 | > 100 | > 100 | > 100 |  | > 100 | > 100 | > 100 | > 100 |  |  |  |  |  |  |  |  |  | 
3 | COc1ccc(/C=C/[N+](=O)[O-])cc1 |  | 12.8 | 8.62 | 50.8 | 8.11 | 4.92 | 12.7 | 41.3 | 35.3 | 43.4 |  |  |  |  |  |  |  |  |  | 
4 | C/C(=C\COP(=O)(O)OP(=O)(O)O)CC/C=C(\C)CNc1ccc([N+](=O)[O-])cc1 | > 100 | > 100 | > 100 | > 100 | > 100 | > 100 | > 100 | > 100 | > 100 | > 100 |  |  |  |  |  |  |  |  |  | 
5 | C[C@H](CCC1=NCCN1)[C@H]1CC[C@H]2[C@@H]3CC[C@@H]4C[C@H](O)CC[C@]4(C)[C@H]3CC[C@]12C | 22.4 | 8.79 | 38.4 | 34.7 | 34.3 | > 58.1 | 36.3 | 31.4 | 7.76 | 14.3 |  |  |  |  |  |  |  |  |  | 
6 | NC(=O)c1cc(C2OC(CO)C(O)C2O)nn1-c1ccc([N+](=O)[O-])cc1 (stereo unspecified) | > 100 | > 100 | > 100 | > 100 | > 100 | > 100 | > 100 | > 100 | > 100 |  |  |  |  |  |  |  |  |  |  | 
7 | C#C[C@@]1(O)[C@@H](CO)O[C@@H](n2cc(F)c3c(N)ncnc32)[C@@H]1O | 2.64 | > 100 | > 100 | > 100 | 78.3 | 5.29 | 13.7 | 2.48 | 1.81 | 0.929 | 0.377 | 0.362 | 0.304 | 0.18 | 1.11 | 1.78 | 0.751 | 1.31 | 0.524 | 0.47
8 | COC(=O)c1nc2c3c(cccc3c1C(=O)OC)Nc1ccccc1-2 | > 100 | > 100 | > 100 | > 100 | > 100 | > 100 | > 100 | > 100 | 93 | 41.5 |  |  |  |  |  |  |  |  |  | 
9 | O=C(O)C(Br)Cc1ccc2c(c1)OCO2 (stereo unspecified) | > 100 | > 100 | > 100 | > 100 | > 100 | > 100 | > 100 | > 100 | > 100 | > 100 |  |  |  |  |  |  |  |  |  | 
10 | COc1ccc(/C(Cl)=C(\C=O)c2ccc(Cl)c(Cl)c2)cc1OC |  | 5.76 | 26.3 |  | 18.5 | 19.2 | 65.9 | 20.7 | 42.5 | 6.53 |  |  |  |  |  |  |  |  |  | 
11 | COc1cc2c3c(c4cc(OC)c(OC)cc4c2cc1OC)[C@H](O)[C@@H]1CCCN1C3 | 2.56 | > 100 | 1.18 | 0.732 |  |  | > 100 |  | 6.69 | 1.55 |  |  |  |  |  |  |  |  |  | 
12 | CSc1sc(=S)sc1SC | > 100 | > 100 | > 100 | > 100 | > 100 | > 100 | > 100 | > 100 | > 100 | > 100 |  |  |  |  |  |  |  |  |  | 
13 | COc1cc2c3c(n(C4CCNCC4)c(=O)c2cc1OC)-c1cc2c(cc1C3=O)OCO2 |  |  | 2.6 |  |  |  |  |  |  | 2.99 |  |  |  | 0.296 | 1.2 |  |  |  |  | 
14 | Nc1nncs1 | 4980 | > 4900 | > 5000 | > 4450 | > 5000 | > 5000 | > 5000 | > 5000 | > 5000 | 4690 |  |  |  |  |  |  |  |  |  | 
15 | COc1ccc2c(c1)/C(=C\c1cccc(/C=C3/C(=O)Nc4ccc(OC)cc43)n1)C(=O)N2 | > 100 | 0.802 | 5.38 | 3.74 | > 39.9 | 5.7 | 3.38 | 3.81 | 5.51 | 6.9 |  |  |  |  |  |  |  |  |  | 
16 | CCOn1cc(C2=C(c3c[nH]c4ccccc34)C(=O)NC2=O)c2ccccc21 | 22.7 | 10.4 | < 0.0182 | 17.2 | 25.1 | < 0.01 | 20.5 | > 47.4 |  | > 33.6 | < 0.0284 |  | < 0.01 |  | < 0.0117 | 0.398 | < 0.0385 | < 0.01 | < 0.0264 | 16.9
17 | COC1/C=C\OC2(C)Oc3c(C)c(O)c4c(O)c(c(CN(C)C)c(O)c4c3C2=O)NC(=O)/C(C)=C\C=C/C(C)C(O)C(C)C(O)C(C)C(OC(C)=O)C1C (stereo unspecified) | > 100 | 38.9 | > 100 | > 100 | > 100 | 45.5 | > 100 | > 100 | 39.3 | 32.1 |  |  |  |  |  |  |  |  |  | 
18 | O=C1OC2(c3ccc(O)cc3Oc3cc(O)ccc32)c2c1c(-c1ccccc1)c(-c1ccccc1)c(-c1ccccc1)c2-c1ccccc1 | > 100 | 56.9 | > 100 | 49.3 | 53.1 | 40.8 | 37.7 | 63.7 | 44.6 | 32.6 |  |  |  |  |  |  |  |  |  | 
19 | CCCCCCCCCCCCCCCCOCCCOP(=O)(O)C1CCCN(O)C1=O (stereo unspecified) | 14.4 | 19.7 | 16.4 | 18.6 | 11.7 | 11 | 14.5 | 13.7 | 10.8 | 14.8 | 3.56 | 2.64 | 1.6 | 2.76 | 2.77 | 1.63 | 1.81 | 3.02 | 0.63 | 2.77
20 | CC1(C)N=C(N)N=C(N)N1c1cccc(OCc2cccc([N+](=O)[O-])c2)c1 | > 100 | > 100 | > 73.9 | > 100 | > 100 | > 79.4 | > 100 | > 100 | > 100 | > 100 |  |  |  |  |  |  |  |  |  | 
